In patent US11793849B2, “Method of Chinese herbal medicine extract used for treating multiple diseases caused by drug resistant bacteria infection” (priority 2016, dated 2023):
≈ marks a conversion by molar mass, not a printed value. Read-outs that look alike come from different tables or passages of the source.

What was measured:
ATCC25922 [1] = test: MIC determination, control strain; format: cell-based
ESBL-producing ECO = test: Checkerboard assay (combined-use MIC, FIC); format: cell-based, Escherichia coli; conditions: 20 ESBL-producing ECOs
Protocol: Test methods of the sensibilization effects of the test product to similar antibiotics: it is operated by referring to a checkerboard assay recommended by NCCLS.
The checkerboard assay is performed in a 96-pore sterile culture plate.
Calculation of a Fractional Inhibitory Concentration (FIC): FIC=S20b combined-use MIC/S20b single-use MIC+antibiotic combined-use MIC/antibiotic single-use MIC. By calculating the FIC, the combined antibacterial interaction between the EA and the antibiotic is evaluated, with synergistic effect for FIC≤0.5, additive effect for 0.5<FIC≤1, indifferent effect for 1<FIC≤2 and antagonistic effect for FIC>2. According to a sterile growth pore, the optimum concentration ratio between the EA and the antibiotic is founded out. At last, the effect of the EA to strengthen the efficacy of the antibiotic is evaluated.

ATCC25922 [2] = test: MIC determination, control strain ATCC25922; format: cell-based; conditions: EA = 95% ethanol extract
MDRPA = test: MIC determination, microdilution broth method;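 further: broth microdilution per NCCLS recommendations, testing Pithecellobium clypearia water or ethanol extracts against multidrug-resistant Pseudomonas aeruginosa, with MIC50 and MIC90 derived statistically from individual MICs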
Protocol: Determination methods of a Minimal Inhibitory Concentration (MIC) and a Minimum Bactericidal Concentration (MBC) of a test product: the MIC and the MBC of the Pithecellobium clypearia Benth water or ethanol extract to the MDRAB are determined by a microdilution broth method. And it is operated by referring to the microdilution broth method recommended by National Committee for Clinical Laboratory Standards (NCCLS).
By determining the MIC and the MBC of the drug and making statistics of the data to obtain MIC50, MIC90, MBC50 and MBC90, the effect of the MDRA resistance of the drug is evaluated.
Test method: the MDRPA (serial No.: P1-P20) strains are tested and are evaluated with reference to the method in the first embodiment.

[3] = antibiotic with 10% ethanol extract
[4] = antibiotic with 60% ethanol extract
[5] = antibiotic with 95% ethanol extract
[6] = 20 MDRPAs, EA = 60% ethanol extract
[7] = 20 MDRPAs, EA = 95% ethanol extract
[8] = MDRPAs P1-P20, single use, EA=P. clypearia 10% ethanol extract
[9] = MDRPAs P1-P20, single use, EA=P. clypearia water extract

SMILES: NCC[C@H](O)C(=O)N[C@@H]1C[C@H](N)[C@@H](O[C@H]2O[C@H](CN)[C@@H](O)[C@H](O)[C@H]2O)[C@H](O)[C@H]1O[C@H]1O[C@H](CO)[C@@H](O)[C@H](N)[C@H]1O [AMK, Amikacin]
- MIC (ATCC25922 [1]; EA = 10% ethanol extract): 4 µg/mL (≈ 6.83 µM)
- MIC (ATCC25922 [1]; EA = 60% ethanol extract): 4 µg/mL (≈ 6.83 µM)
- MIC (ATCC25922 [1]; EA = water extract, read-out: MIC): 4 µg/mL (≈ 6.83 µM)
- FIC, all strains (ESBL-producing ECO; [3]): ≤ 2
- MIC50 of the antibiotic after combined use (ESBL-producing ECO; [3]): 4 µg/mL
- MIC90 of the antibiotic after combined use (ESBL-producing ECO; [3]): 16 µg/mL
- reduction of the antibiotic's MIC50 vs single use (ESBL-producing ECO; [3]): 75%
- reduction of the antibiotic's MIC90 vs single use (ESBL-producing ECO; [3]): 75%
- share of strains with FIC ≤ 0.5 (ESBL-producing ECO; [3]): 50%
- FIC, all strains (ESBL-producing ECO; [4]): ≤ 2
- MIC50 of the antibiotic after combined use (ESBL-producing ECO; [4]): 4 µg/mL
- MIC90 of the antibiotic after combined use (ESBL-producing ECO; [4]): 8 µg/mL
- reduction of the antibiotic's MIC50 vs single use (ESBL-producing ECO; [4]): 75%
- share of strains with FIC ≤ 0.5 (ESBL-producing ECO; [4]): 70%
- FIC, all strains (ESBL-producing ECO; [5]): ≤ 2
- MIC50 of the antibiotic after combined use (ESBL-producing ECO; [5]): 4 µg/mL
- MIC90 of the antibiotic after combined use (ESBL-producing ECO; [5]): 16 µg/mL
- reduction of the antibiotic's MIC50 vs single use (ESBL-producing ECO; [5]): 75%
- reduction of the antibiotic's MIC90 vs single use (ESBL-producing ECO; [5]): 75%
- share of strains with FIC ≤ 0.5 (ESBL-producing ECO; [5]): 50%
- FIC, all strains (ESBL-producing ECO; antibiotic with water extract): ≤ 2
- MIC50 of the antibiotic after combined use (ESBL-producing ECO; antibiotic with water extract): 4 µg/mL
- MIC90 of the antibiotic after combined use (ESBL-producing ECO; antibiotic with water extract): 16 µg/mL
- reduction of the antibiotic's MIC50 vs single use (ESBL-producing ECO; antibiotic with water extract): 75%
- reduction of the antibiotic's MIC90 vs single use (ESBL-producing ECO; antibiotic with water extract): 75%
- share of strains with FIC ≤ 0.5 (ESBL-producing ECO; antibiotic with water extract): 50%
- MIC (ATCC25922 [2]): 4 µg/mL (≈ 6.83 µM)
- MIC50 (MDRPA; [6]): 1 µg/mL (≈ 1.71 µM)
- MIC90 (MDRPA; [6]): 32 µg/mL (≈ 54.6 µM)
- MIC Range (MDRPA; [6]): 1 to 256 µg/mL
- MIC50 (MDRPA; [7]): 1 µg/mL (≈ 1.71 µM)
- MIC90 (MDRPA; [7]): 32 µg/mL (≈ 54.6 µM)
- MIC Range (MDRPA; [7]): 1 to 256 µg/mL
- MIC50 (MDRPA; [8]): 1 µg/mL (≈ 1.71 µM)
- MIC90 (MDRPA; [8]): 32 µg/mL (≈ 54.6 µM)
- MIC Range (MDRPA; [8]): 1 to 256 µg/mL
- MIC50 (MDRPA; [9]): 1 µg/mL (≈ 1.71 µM)
- MIC90 (MDRPA; [9]): 32 µg/mL (≈ 54.6 µM)
- MIC Range (MDRPA; [9]): 1 to 256 µg/mL
- MIC50 (MDRPA; Pseudomonas aeruginosa): 1 µg/mL (≈ 1.71 µM)
- MIC90 (MDRPA; Pseudomonas aeruginosa): 32 µg/mL (≈ 54.6 µM)
- MIC (MDRPA; Pseudomonas aeruginosa, read-out: MIC (single use), strain P1, EA=P. clypearia 10% ethanol extract): 1 µg/mL (≈ 1.71 µM)
- MIC (MDRPA; Pseudomonas aeruginosa, read-out: MIC (single use), strain P1, EA=P. clypearia water extract): 1 µg/mL (≈ 1.71 µM)
- MIC (MDRPA; Pseudomonas aeruginosa, read-out: MIC (single use), strain P2, EA=P. clypearia 10% ethanol extract): 1 µg/mL (≈ 1.71 µM)
- MIC (MDRPA; Pseudomonas aeruginosa, read-out: MIC (single use), strain P2, EA=P. clypearia water extract): 1 µg/mL (≈ 1.71 µM)
- MIC (MDRPA; Pseudomonas aeruginosa, read-out: MIC (single use), strain P3, EA=P. clypearia 10% ethanol extract): 4 µg/mL (≈ 6.83 µM)
- MIC (MDRPA; Pseudomonas aeruginosa, read-out: MIC (single use), strain P3, EA=P. clypearia water extract): 4 µg/mL (≈ 6.83 µM)
- MIC (MDRPA; Pseudomonas aeruginosa, read-out: MIC (single use), strain P4, EA=P. clypearia 10% ethanol extract): 1 µg/mL (≈ 1.71 µM)
- MIC (MDRPA; Pseudomonas aeruginosa, read-out: MIC (single use), strain P4, EA=P. clypearia water extract): 1 µg/mL (≈ 1.71 µM)
- MIC (MDRPA; Pseudomonas aeruginosa, read-out: MIC (single use), strain P5, EA=P. clypearia 10% ethanol extract): 2 µg/mL (≈ 3.42 µM)
- MIC (MDRPA; Pseudomonas aeruginosa, read-out: MIC (single use), strain P5, EA=P. clypearia water extract): 2 µg/mL (≈ 3.42 µM)
- MIC (MDRPA; Pseudomonas aeruginosa, read-out: MIC (single use), strain P6, EA=P. clypearia 10% ethanol extract): 256 µg/mL (≈ 437 µM)
- MIC (MDRPA; Pseudomonas aeruginosa, read-out: MIC (single use), strain P6, EA=P. clypearia water extract): 256 µg/mL (≈ 437 µM)
- MIC (MDRPA; Pseudomonas aeruginosa, read-out: MIC (single use), strain P7, EA=P. clypearia 10% ethanol extract): 1 µg/mL (≈ 1.71 µM)
